Laboratory results as given in ChEMBL document CHEMBL1154899, “Synthesis and biological evaluation of caffeic acid 3,4-dihydroxyphenethyl ester” (J Nat Prod, 2010).

How the values were obtained:
Type in all cases: functional
A498 = assay: Antiproliferative activity against human A498 cells assessed as cell growth at 0.5 uM by SRB assay; details: read-out: Activity
SNB-75 = assay: Antiproliferative activity against human SNB75 cells assessed as cell growth at 5 mM by SRB assay; details: read-out: Activity
SW-620 = assay: Antiproliferative activity against human SW620 cells assessed as cell growth at 50 uM by SRB assay; details: read-out: Activity
NCI-H226 = assay: Antiproliferative activity against human NCI-H226 cells assessed as cell growth at 0.5 uM by SRB assay; details: read-out: Activity
MCF7 [1] = assay: Antiproliferative activity against human MCF7 cells assessed as cell growth at 5 uM by SRB assay; details: read-out: Activity
A549 = assay: Antiproliferative activity against human A549 cells assessed as cell growth at 500 uM by SRB assay; details: read-out: Activity
SF-268 = assay: Antiproliferative activity against human SF268 cells assessed as cell growth at 500 uM by SRB assay; details: read-out: Activity
DU-145 [2] = assay: Antiproliferative activity against human DU145 cells assessed as cell growth at […] by SRB assay; details: read-out: Activity
COLO 205 [3] = assay: Antiproliferative activity against human COLO205 cells by SRB assay
OVCAR-5 = assay: Antiproliferative activity against human OVCAR5 cells at 50 uM by SRB assay
U-251 = assay: Antiproliferative activity against human U251 cells by SRB assay
HCC 2998 = assay: Antiproliferative activity against human HCC2998 cells assessed as cell growth at 5 uM by SRB assay; details: read-out: Activity
SF-539 [4] = assay: Antiproliferative activity against human SF539 cells assessed as cell growth at 50 uM by SRB assay; details: read-out: Activity
UO-31 = assay: Antiproliferative activity against human UO31 cells by SRB assay
SF-539 [5] = assay: Antiproliferative activity against human SF539 cells assessed as cell growth at 0.5 uM by SRB assay; details: read-out: Activity
COLO 205 [6] = assay: Antiproliferative activity against human COLO205 cells assessed as cell growth at 0.5 uM by SRB assay; details: read-out: Activity
MOLT-4 = assay: Antiproliferative activity against human MOLT4 cells assessed as cell growth at 5 uM by SRB assay; details: read-out: Activity
IGROV-1 = assay: Antiproliferative activity against human IGROV1 cells assessed as cell growth at 50 uM by SRB assay; details: read-out: Activity
SK-MEL-28 = assay: Antiproliferative activity against human SK-MEL-28 cells assessed as cell growth at 0.5 uM by SRB assay; details: read-out: Activity
SNB-19 [7] = assay: Antiproliferative activity against human SNB19 cells assessed as cell growth at 500 uM by SRB assay; details: read-out: Activity
MDA-MB-231 [8] = assay: Antiproliferative activity against human MDA-MB-231 cells assessed as cell growth at 0.5 uM by SRB assay; details: read-out: Activity
MDA-MB-231 [9] = assay: Antiproliferative activity against human MDA-MB-231 cells assessed as cell growth at 5 uM by SRB assay; details: read-out: Activity
MCF7 [10] = assay: Antiproliferative activity against human MCF7 cells assessed as cell growth at 0.5 uM by SRB assay; details: read-out: Activity
MDA-MB-435 = assay: Antiproliferative activity against human MDA-MB-435 cells assessed as cell growth at 0.5 uM by SRB assay; details: read-out: Activity
EKVX = assay: Antiproliferative activity against human EKVX cells assessed as cell growth at 500 uM by SRB assay; details: read-out: Activity
CCRF-CEM = assay: Antiproliferative activity against human CCRF-CEM cells by SRB assay
UACC-62 = assay: Antiproliferative activity against human UACC62 cells assessed as cell growth at 5 uM by SRB assay; details: read-out: Activity
HT-29 = assay: Antiproliferative activity against human HT-29 cells assessed as cell growth at […] by SRB assay; details: read-out: Activity
NCI-H23 = assay: Antiproliferative activity against human NCI-H23 cells by SRB assay
TK-10 = assay: Antiproliferative activity against human TK10 cells assessed as cell growth at 5 uM by SRB assay; details: read-out: Activity
LOX IMVI = assay: Antiproliferative activity against human LOXIMVI cells assessed as cell growth at 5 uM by SRB assay; details: read-out: Activity
ACHN [11] = assay: Antiproliferative activity against human ACHN cells assessed as cell growth at 50 uM by SRB assay; details: read-out: Activity
SK-MEL-5 = assay: Antiproliferative activity against human SK-MEL-5 cells assessed as cell growth at 5 mM by SRB assay; details: read-out: Activity
HCT-116 = assay: Antiproliferative activity against human HCT116 cells assessed as cell growth at 0.5 uM by SRB assay; details: read-out: Activity
DU-145 [12] = assay: Antiproliferative activity against human DU145 cells assessed as cell growth at 500 uM by SRB assay; details: read-out: Activity
NCI-H322M = assay: Antiproliferative activity against human NCI-H322M cells assessed as cell growth at 50 uM by SRB assay; details: read-out: Activity
ACHN [13] = assay: Antiproliferative activity against human ACHN cells assessed as cell growth at 0.5 uM by SRB assay; details: read-out: Activity
RXF 393 [14] = assay: Antiproliferative activity against human RXF393 cells assessed as cell growth at 500 uM by SRB assay; details: read-out: Activity
NCI-H460 [15] = assay: Antiproliferative activity against human NCI-H460 cells assessed as cell growth at 0.5 uM by SRB assay; details: read-out: Activity
OVCAR-3 = assay: Antiproliferative activity against human OVCAR-3 cells assessed as cell growth at 0.5 uM by SRB assay; details: read-out: Activity
NCI-H460 [16] = assay: Antiproliferative activity against human NCI-H460 cells assessed as cell growth at 50 uM by SRB assay; details: read-out: Activity
RXF 393 [17] = assay: Antiproliferative activity against human RXF393 cells by SRB assay
SNB-19 [18] = assay: Antiproliferative activity against human SNB19 cells assessed as cell growth at 0.5 uM by SRB assay; details: read-out: Activity
SR = assay: Antiproliferative activity against human SR cells assessed as cell growth at 0.5 uM by SRB assay; details: read-out: Activity
[19] = read-out: LC50 (the source's name)
[20] = read-out: pLC50 (the source's name) (converted)

`O=C(/C=C/c1ccc(O)c(O)c1)OCCc1ccc(O)c(O)c1` gave a growth at 0.5 µM (A498) of 94%, a growth at 5000 µM (SNB-75) of 30% and a growth at 50 µM (SW-620) of 98%. It also gave a growth at 0.5 µM (NCI-H226) of 97%, a growth at 5 µM (MCF7 [1]) of 108% and a growth at 500 µM (A549) of 96%. It also gave a growth at 500 µM (SF-268) of 57%, a growth (DU-145 [2]) of -22% and a GI50 (COLO 205 [3]; read-out: GI50) of 18.8 µM. For the same compound, the CC50 (COLO 205 [3]; [19]) was > 50 µM, the TGI (COLO 205 [3]; read-out: TGI) was > 50 µM and the GI50 (COLO 205 [3]; read-out: pGI50 (converted)) was 18.6 µM. The CC50 (COLO 205 [3]; [20]) was > 50.1 µM, the TGI (COLO 205 [3]; read-out: pTGI) was > 50.1 µM and the Activity (OVCAR-5) was 97%. For the same compound, the GI50 (U-251; read-out: GI50) was 8.86 µM, the CC50 (U-251; [19]) was > 50 µM and the TGI (U-251; read-out: TGI) was > 50 µM. For the same compound, the GI50 (U-251; read-out: pGI50 (converted)) was 8.71 µM, the CC50 (U-251; [20]) was > 50.1 µM and the TGI (U-251; read-out: pTGI) was > 50.1 µM. The growth at 5 µM (HCC 2998) was 107%, the growth at 50 µM (SF-539 [4]) was 89% and the GI50 (UO-31; read-out: GI50) was 1.75 µM. The CC50 (UO-31; [19]) was > 50 µM, the TGI (UO-31; read-out: TGI) was 21.1 µM and the GI50 (UO-31; read-out: pGI50 (converted)) was 1.66 µM. The CC50 (UO-31; [20]) was > 50.1 µM, the TGI (UO-31; read-out: pTGI (converted)) was 20.9 µM and the growth at 0.5 µM (SF-539 [5]) was 90%. It also gave a growth at 0.5 µM (COLO 205 [6]) of 99%, a growth at 5 µM (MOLT-4) of 97% and a growth at 50 µM (IGROV-1) of 98%. It also gave a growth at 0.5 µM (SK-MEL-28) of 97%, a growth at 500 µM (SNB-19 [7]) of 79% and a growth at 0.5 µM (MDA-MB-231 [8]) of 113%. For the same compound, the growth at 5 µM (MDA-MB-231 [9]) was 108%, the growth at 0.5 µM (MCF7 [10]) was 94% and the growth at 0.5 µM (MDA-MB-435) was 99%. For the same compound, the growth at 500 µM (EKVX) was 78%, the GI50 (CCRF-CEM) was 0.75 µM and the CC50 (CCRF-CEM; [19]) was > 50 µM. The TGI (CCRF-CEM; read-out: TGI) was 5.33 µM, the CC50 (CCRF-CEM; [20]) was > 50.1 µM and the TGI (CCRF-CEM; read-out: pTGI (converted)) was 5.37 µM. It also gave a growth at 5 µM (UACC-62) of 94%, a growth (HT-29) of 34% and a GI50 (NCI-H23; read-out: GI50) of 11.6 µM. The CC50 (NCI-H23; [19]) was > 50 µM, the TGI (NCI-H23; read-out: TGI) was > 50 µM and the GI50 (NCI-H23; read-out: pGI50 (converted)) was 11.5 µM. The CC50 (NCI-H23; [20]) was > 50.1 µM, the TGI (NCI-H23; read-out: pTGI) was > 50.1 µM and the growth at 5 µM (TK-10) was 95%. For the same compound, the growth at 5 µM (LOX IMVI) was 101%, the growth at 50 µM (ACHN [11]) was 89% and the growth at 5000 µM (SK-MEL-5) was -1%. For the same compound, the growth at 0.5 µM (HCT-116) was 100%, the growth at 500 µM (DU-145 [12]) was 80% and the growth at 50 µM (NCI-H322M) was 97%. For the same compound, the growth at 0.5 µM (ACHN [13]) was 98%, the growth at 500 µM (RXF 393 [14]) was 89% and the growth at 0.5 µM (NCI-H460 [15]) was 95%. For the same compound, the growth at 0.5 µM (OVCAR-3) was 104%, the growth at 50 µM (NCI-H460 [16]) was 100% and the GI50 (RXF 393 [17]; read-out: GI50) was 15.5 µM. For the same compound, the CC50 (RXF 393 [17]; [19]) was > 50 µM, the TGI (RXF 393 [17]; read-out: TGI) was > 50 µM and the GI50 (RXF 393 [17]; read-out: pGI50 (converted)) was 15.5 µM. For the same compound, the CC50 (RXF 393 [17]; [20]) was > 50.1 µM, the TGI (RXF 393 [17]; read-out: pTGI) was > 50.1 µM and the growth at 0.5 µM (SNB-19 [18]) was 93%. It also gave a growth at 0.5 µM (SR) of 92%.
